Experimental data from patent publication US10934277B2, “Enantiomerically purified GPER agonist for use in treating disease states and conditions” (Linnaeus Therapeutics, Inc., priority 2018, dated 2021).
In brackets after ≈: the same amount, converted by molar mass. Several values for one entry are separate records, joined by “and”; a condition that tells them apart may be missing. Equal values may be shown once. One block for each compound: values may come before it.

Assays:
[1] = Dynamic Vapor Sorption/Desorption (DVS); format: physicochemical
Text: The weight change through the sorption/desorption cycle was less than 0.3% weight. Hysteresis was not observed. The material recovered from the Dynamic Vapor Sorption experiment was Form A by XRPD.
Moisture sorption/desorption data were collected on a VTI SGA-100 Vapor Sorption Analyzer. NaCl and PVP were used as calibration standards. Samples were not dried prior to analysis. Sorption and desorption data were collected over a range from 5% to 95% RH at 10% RH increments under a nitrogen purge. The equilibrium criterion used for analysis was less than 0.0100% weight change in 5 minutes with a maximum equilibration time of 3 hours. Data were not corrected for the initial moisture content of the samples.

[2] = Approximate solubility of SRR G-1 Form A in solvents; format: physicochemical
[3] = Solubility measurement in pH buffers; format: physicochemical; conditions: 37° C., 24 hrs; for solubility at 24 h: aqueous buffer, thermodynamic from solid, read-out: Solubility; for Form Conversion: XRPD of residual solids
[4] = Kinetic solubility measurement in bio-relevant media; format: physicochemical; conditions: 37° C.; for Form Change: SGF; for solubility at 1 h / solubility at 2 h / solubility at 4 h / solubility at 24 h: thermodynamic from solid
[5] = Physical stability of amorphous material; format: physicochemical
Description: Amorphous material crystallized to Form A upon exposure to either elevated temperature (within 4 days at 60° C.) or humidity (within 12 days at 75% RH).

[6] = Disproportionation of salts in water slurry; format: physicochemical
Text: The possibility of disproportionation in water was investigated. […] The excess solids were recovered and reanalyzed by XRPD for evidence of freebase or benzenesulfonic acid.
The possibility of disproportionation in water was investigated. […] The excess solids were recovered and reanalyzed by XRPD for evidence of freebase or naphthalene-2-sulfonic acid.

[7] = Plasma concentration of SRR G-1 in rats after oral dosing (LC-MS/MS); format: in vivo; conditions: rat, PO 10 mg/kg, individual animals (R1-R9)
Text: The results are shown in Tables 22-24 for each respectively.

[8] = Physical stability of Form B (desolvation); format: physicochemical
Description: The physical stability of Form B was investigated. […] Vacuum at 70° C.

[9] = test system: YUMM1.7 melanoma cells; assay: YUMM1.7 proliferation assay (4 day growth); format: cell-based; conditions: 500 nM
Description: YUMM1.7 cells were cultured for at least 1 passage after thawing and were cultured in DMEM with 5% FBS (Invitrogen) and 1% antibiotic-antimycotic (gibco) at 37C 5% CO2. Proliferation assays were performed by plating 15,000 cells in 12-well plates with 5 replicates per condition tested. Media and drugs were refreshed on Day 2. On Day 4, cells were trypsinized using 0.25 ml 0.05% Trypsin with EDTA (Invitrogen) for 5 minutes to detach from the plate, mixed with 0.75 ml of culture media, and counted using a hemocytometer.
Starting cell numbers were 15,000.

hygroscopicity ([1]; DVS isotherm): low hygroscopicity
weight change through the sorption/desorption cycle ([1]; DVS, 5% to 95% RH): less than 0.3 % weight
solubility ([2]; oil or lipid, sesame oil): 2000 µg/mL (≈ 4850 µM)
solubility ([2]; organic solvent or mixture, ACN): 24000 µg/mL (≈ 58200 µM)
solubility ([2]; organic solvent or mixture, DCM): > 89000 µg/mL
solubility ([2]; organic solvent or mixture, DMSO): > 203000 µg/mL
solubility ([2]; organic solvent or mixture, EtOAc): > 65000 µg/mL
solubility ([2]; organic solvent or mixture, EtOH): 7000 µg/mL (≈ 17000 µM)
solubility ([2]; organic solvent or mixture, IPA): 4000 µg/mL (≈ 9700 µM)
solubility ([2]; organic solvent or mixture, MeOH): 6000 µg/mL (≈ 14600 µM)
solubility ([2]; organic solvent or mixture, THF): > 67000 µg/mL
solubility ([2]; organic solvent or mixture, acetone): > 122000 µg/mL
solubility ([2]; organic solvent or mixture, diethyl ether): 8000 µg/mL (≈ 19400 µM)
solubility ([2]; organic solvent or mixture, toluene): 40000 µg/mL (≈ 97000 µM)
solubility ([2]; water): < 2000 µg/mL
solubility at 24 h ([3]; pH 2.0 buffer): < 0.72 µg/mL
solubility at 24 h ([3]; pH 3.0 buffer): < 0.72 µg/mL
solubility at 24 h ([3]; pH 4.0 buffer): < 0.72 µg/mL
solubility at 24 h ([3]; pH 5.0 buffer): < 0.72 µg/mL
solubility at 24 h ([3]; pH 6.0 buffer): < 0.72 µg/mL
solubility at 24 h ([3]; pH 7.0 buffer): < 0.72 µg/mL
solubility at 24 h ([3]; pH 8.0 buffer): < 0.72 µg/mL
Form Conversion ([3]; pH 2.0 buffer): No
Form Conversion ([3]; pH 3.0 buffer): No
Form Conversion ([3]; pH 4.0 buffer): No
Form Conversion ([3]; pH 5.0 buffer): No
Form Conversion ([3]; pH 6.0 buffer): No
Form Conversion ([3]; pH 7.0 buffer): No
Form Conversion ([3]; pH 8.0 buffer): No
FC (Form Change) ([4]; FaSSIF, 1 h): No
FC (Form Change) ([4]; FaSSIF, 2 h): No
FC (Form Change) ([4]; FaSSIF, 4 h): No
FC (Form Change) ([4]; FaSSIF, 24 h): No
FC (Form Change) ([4]; FeSSIF, 1 h): No
FC (Form Change) ([4]; FeSSIF, 2 h): No
FC (Form Change) ([4]; FeSSIF, 4 h): No
FC (Form Change) ([4]; FeSSIF, 24 h): No
Form Change ([4]; 1 h): No
Form Change ([4]; 2 h): No
Form Change ([4]; 4 h): No
Form Change ([4]; 24 h): No
solubility at 1 h ([4]; simulated gastric fluid, SGF (pH 1.8), 1 h): 5.9 µg/mL (≈ 14.3 µM)
solubility at 2 h ([4]; simulated gastric fluid, SGF (pH 1.8), 2 h): 6.2 µg/mL (≈ 15 µM)
solubility at 4 h ([4]; simulated gastric fluid, SGF (pH 1.8), 4 h): 6.6 µg/mL (≈ 16 µM)
solubility at 24 h ([4]; simulated gastric fluid, SGF (pH 1.8), 24 h): 5.7 µg/mL (≈ 13.8 µM)
solubility at 1 h ([4]; FaSSIF (pH 6.5), 1 h): 7.1 µg/mL (≈ 17.2 µM)
solubility at 2 h ([4]; FaSSIF (pH 6.5), 2 h): 6.8 µg/mL (≈ 16.5 µM)
solubility at 4 h ([4]; FaSSIF (pH 6.5), 4 h): 7.1 µg/mL (≈ 17.2 µM)
solubility at 24 h ([4]; FaSSIF (pH 6.5), 24 h): 7.3 µg/mL (≈ 17.7 µM)
solubility at 1 h ([4]; FeSSIF (pH 5.0), 1 h): 36 µg/mL (≈ 87.3 µM)
solubility at 2 h ([4]; FeSSIF (pH 5.0), 2 h): 37 µg/mL (≈ 89.7 µM)
solubility at 4 h ([4]; FeSSIF (pH 5.0), 4 h): 38 µg/mL (≈ 92.2 µM)
solubility at 24 h ([4]; FeSSIF (pH 5.0), 24 h): 37 µg/mL (≈ 89.7 µM)
Structure (SMILES): CC(=O)c1ccc2c(c1)[C@@H]1C=CC[C@@H]1[C@H](c1cc3c(cc1Br)OCO3)N2 [SRR G-1 Form A, 1-((3aS,4R,9bR)-4-(6-bromobenzo[d][1,3]dioxol-5-yl)-3a,4,5,9b-tetrahydro-3H-cyclopenta[c]quinolin-8-yl)ethan-1-one]

time to crystallization to Form A ([5]; elevated temperature, 60° C.): ≤ 4 days
time to crystallization to Form A ([5]; humidity, 75% RH): ≤ 12 days
Structure (SMILES): CC(=O)c1ccc2c(c1)[C@@H]1C=CC[C@@H]1[C@H](c1cc3c(cc1Br)OCO3)N2 [Amorphous material]

disproportionation in water ([6]; slurried in water for 4 days, XRPD of recovered solids): disproportionation did not occur
Plasma Conc. ([7]; time 0.500 h): 39.2 ng/mL and 35.2 ng/mL and 34.1 ng/mL
Plasma Conc. ([7]; time 1.00 h): 43.9 ng/mL and 42.0 ng/mL and 44.5 ng/mL
Plasma Conc. ([7]; time 2.00 h): 28.5 ng/mL and 30.6 ng/mL and 32.3 ng/mL
Plasma Conc. ([7]; time 4.00 h): 20.0 ng/mL and 16.7 ng/mL and 19.5 ng/mL
Plasma Conc. ([7]; time 8.00 h): 8.17 ng/mL and 5.78 ng/mL and 6.18 ng/mL
Structure (SMILES): CC(=O)c1ccc2c(c1)[C@@H]1C=CC[C@@H]1[C@H](c1cc3c(cc1Br)OCO3)N2.O=S(=O)(O)c1ccccc1 [SRR G-1 Besylate Form A]
Plasma Conc. ([7]; time 24.0 h, LLOQ 0.100 ng/mL): 0.837 ng/mL and 0.668 ng/mL and 0.647 ng/mL

desolvation ([8]; exposure to 90 to 100° C. for 25 minutes): Almost complete desolvation
desolvation ([8]; exposure to 120° C.): Complete desolvation to Form C
desolvation ([8]; vacuum at 70° C. (or below)): not sufficient for desolvation to occur
Structure (SMILES): CC(=O)c1ccc2c(c1)[C@@H]1C=CC[C@@H]1[C@H](c1cc3c(cc1Br)OCO3)N2 [Form B, 1-((3aS,4R,9bR)-4-(6-bromobenzo[d][1,3]dioxol-5-yl)-3a,4,5,9b-tetrahydro-3H-cyclopenta[c]quinolin-8-yl)ethan-1-one]

Structure (SMILES): CC(=O)c1ccc2c(c1)[C@@H]1C=CC[C@@H]1[C@H](c1cc3c(cc1Br)OCO3)N2 (racemic) [Racemic G-1, (±)1-(4-(6-bromobenzo[d][1,3]dioxol-5-yl)-(3 aS*,4R*,9bR*)-tetrahydro-3H-cyclopenta[c]quinolin-8-yl)ethan-1-one, reference compound]
doubling compared with that seen with the vehicle ([9]; 4 days): about half
Doublings ([9]; 4 days, starting cell number 15,000): 3.4
cell count after 4 days of growth (single replicates) ([9]; starting cell number 15,000, 5 replicates): 16 tens of thousands and 18 tens of thousands and 19 tens of thousands and 17 tens of thousands and 24 tens of thousands
average cell count after 4 days of growth ([9]; starting cell number 15,000, average of 5 replicates): 18.8 tens of thousands

disproportionation in water ([6]; slurried in water for 5 days, XRPD of recovered solids (freebase Form A recovered)): disproportionation occurred
Plasma Conc. ([7]; time 0.500 h): 62.2 ng/mL and 50.6 ng/mL and 22.6 ng/mL
Plasma Conc. ([7]; time 1.00 h): 81.9 ng/mL and 67.5 ng/mL and 33.2 ng/mL
Plasma Conc. ([7]; time 2.00 h): 46.6 ng/mL and 39.9 ng/mL and 24.3 ng/mL
Plasma Conc. ([7]; time 4.00 h): 14.6 ng/mL and 14.0 ng/mL and 15.6 ng/mL
Plasma Conc. ([7]; time 8.00 h): 5.45 ng/mL and 6.09 ng/mL and 3.97 ng/mL
Structure (SMILES): CC(=O)c1ccc2c(c1)[C@@H]1C=CC[C@@H]1[C@H](c1cc3c(cc1Br)OCO3)N2.O=S(=O)(O)c1ccc2ccccc2c1 [SRR G-1 Napsylate Form A]
Plasma Conc. ([7]; time 24.0 h, LLOQ 0.100 ng/mL): 0.641 ng/mL and 0.558 ng/mL and 0.435 ng/mL
